In US7407648B2, “Merocyanine derivatives for cosmetic use” (Ciba Specialty Chemicals Corp., priority 2002, dated 2008):

Test: UV absorption spectroscopic data (λmax, ε, E 1%/1 cm) of the merocyanine UV absorbers
Assay type: physicochemical
Design: λmax: unit not given beside the values
Details: for λmax [nm]: Table MC1; for E (1%, 1 cm) / ε / λmax / λmax (sh): Table MC3; for ε: at λmax; for λmax (sh): shoulder

CCCCC(CC)COC(=O)/C(C#N)=C1/C=C(NCCNC2=C/C(=C(\C#N)C(=O)OCC(CC)CCCC)CC(C)(C)C2)CC(C)(C)C1 (centres unmarked) [MC01]
λmax [nm] (in MeOH): 362 (MeOH) nm

CCOC(=O)C(C(=O)OCC)=C1C=C(NCCNC2=CC(=C(C(=O)OCC)C(=O)OCC)CC(C)(C)C2)CC(C)(C)C1 [MC03]
λmax [nm] (in MeOH): 372 (MeOH) nm

CC1(C)CC(NCCNC2=CC(=C(C#N)C#N)CC(C)(C)C2)=CC(=C(C#N)C#N)C1 [MC04]
λmax [nm] (in MeOH): 361 (MeOH) nm

CCOC(=O)/C(=C1\C=C(NCCNC2=C/C(=C(\C(=O)OCC)S(=O)(=O)c3ccccc3)CCC2)CCC1)S(=O)(=O)c1ccccc1 [MC05]
λmax [nm] (in MeOH): 362 (MeOH) nm

Cc1ccc(S(=O)(=O)/C(C#N)=C\C=C2\OCC(C)(C)N2C)cc1 [MC06]
λmax [nm] (in MeOH): 374 (MeOH) nm

CCOC(=O)C(C(=O)OCC)=C1C=C(N2CCN(C3=CC(=C(C(=O)OCC)C(=O)OCC)CC(C)(C)C3)CC2)CC(C)(C)C1 [MC08]
λmax [nm] (in MeOH): 373 (MeOH) nm

CCOC(=O)/C(C#N)=C1\C=C(NC2CCCCC2NC2=C/C(=C(/C#N)C(=O)OCC)CC(C)(C)C2)CC(C)(C)C1 (centres unmarked) [MC09]
λmax [nm] (in MeOH): 370 (MeOH) nm

CCOC(=O)C(C(=O)OCC)=C1C=C(NC2CCCCC2NC2=CC(=C(C(=O)OCC)C(=O)OCC)CC(C)(C)C2)CC(C)(C)C1 (centres unmarked) [MC10]
λmax [nm] (in MeOH): 362 (MeOH) nm

CCOC(=O)/C(C#N)=C1\C=C(NCCN(CCNC2=C/C(=C(/C#N)C(=O)OCC)CC(C)(C)C2)CCNC2=C/C(=C(\C#N)C(=O)OCC)CC(C)(C)C2)CC(C)(C)C1 [MC11]
λmax [nm] (in MeOH): 375 (MeOH) nm

CN(CCCNC1=CC(=C2C(=O)CC(C)(C)CC2=O)CCC1)CCCNC1=CC(=C2C(=O)CC(C)(C)CC2=O)CCC1 [MC12]
λmax [nm] (in MeOH): 392 (MeOH) nm

CC1(C)CC(NCCCOCCOCCNC2=CC(=C3C(=O)OC(C)(C)OC3=O)CC(C)(C)C2)=CC(=C2C(=O)OC(C)(C)OC2=O)C1 [MC13]
λmax [nm] (in MeOH): 380 (MeOH) nm

CCOC(=O)C(C(=O)OCC)=C1C=C(NCc2ccc(CNC3=CC(=C(C(=O)OCC)C(=O)OCC)CCC3)cc2)CCC1 [MC14]
λmax [nm] (in MeOH): 392 (MeOH) nm

CCCCCCNC(=O)/C(=C1\C=C(NCCCNC2=C/C(=C(\C(=O)NCCCCCC)S(=O)(=O)c3ccccc3)CCC2)CCC1)S(=O)(=O)c1ccccc1 [MC16]
λmax [nm] (in MeOH): 390 (MeOH) nm

CCCCC(CC)COC(=O)/C(=C1\C=C(NCCCNC2=C/C(=C(\C(=O)OCC(CC)CCCC)S(=O)(=O)c3ccccc3)CCC2)CCC1)S(=O)(=O)c1ccccc1 (centres unmarked) [MC17]
λmax [nm] (in MeOH): 385 (MeOH) nm

CCOC(=O)/C(C#N)=C1\C=C(NCCCCCCNC2=C/C(=C(/C#N)C(=O)OCC)CCC2)CCC1 [MC18]
λmax [nm] (in MeOH): 384 (MeOH) nm

CCOC(=O)C(C(=O)OCC)=C1C=C(NCCCCCCNC2=CC(=C(C(=O)OCC)C(=O)OCC)CCC2)CCC1 [MC19]
λmax [nm] (in MeOH): 373 (MeOH) nm

COc1cc(OC(=O)/C(C(C)=O)=C2/C=C(NCC(C)NC3=C/C(=C(\C(C)=O)C(=O)Oc4cc(OC)c(OC)c(OC)c4)CC(C)(C)C3)CC(C)(C)C2)cc(OC)c1OC (centres unmarked) [MC22]
λmax [nm] (in MeOH): 395 (MeOH) nm

CCOC(=O)/C(C#N)=C1\C=C(NC2CC(C)(C)CC(C)(CNC3=C/C(=C(\C#N)C(=O)OCC)CC(C)(C)C3)C2)CC(C)(C)C1 (centres unmarked) [MC24]
λmax [nm] (in MeOH): 388 (MeOH) nm

CCOC(=O)C(C(=O)OCC)=C1C=C(NCC2(C)CC(NC3=CC(=C(C(=O)OCC)C(=O)OCC)CC(C)(C)C3)CC(C)(C)C2)CC(C)(C)C1 (centres unmarked) [MC25]
λmax [nm] (in MeOH): 395 (MeOH) nm

CCCCC(CC)CNC(=O)/C(C#N)=C1/C=C(N2CCN(C3=C/C(=C(\C#N)C(=O)NCC(CC)CCCC)CC(C)(C)C3)C(C)C2)CC(C)(C)C1 (centres unmarked) [MC26]
λmax [nm] (in MeOH): 374 (MeOH) nm

CC(=O)/C(C(=O)OCC(C)C)=C1/C=C(NCC(C)(CNC2=C/C(=C(\C(C)=O)C(=O)OCC(C)C)CC(C)(C)C2)CNC2=C/C(=C(\C(C)=O)C(=O)OCC(C)C)CC(C)(C)C2)CC(C)(C)C1 [MC27]
λmax [nm] (in MeOH): 385 (MeOH) nm

CCCCC(CC)(CCCNC1=C/C(=C(/C(=O)OCC)C(=O)c2ccc(OC)cc2)CCC1)CNC1=C/C(=C(/C(=O)OCC)C(=O)c2ccc(OCC)cc2)CCC1 (centres unmarked) [MC28]
λmax [nm] (in MeOH): 373 (MeOH) nm

COCCOC(=O)/C(C(C)=O)=C1/C=C(NCCC(C)(C)CC(C)CNC2=C/C(=C(\C(C)=O)C(=O)OCCOC)CC(C)C2)CC(C)C1 (centres unmarked) [MC29]
λmax [nm] (in MeOH): 383 (MeOH) nm

CC(=O)/C(C(=O)NCCNC(=O)/C(C(C)=O)=C1/C=C(N2CCCCC2)CCC1)=C1\C=C(N2CCCCC2)CCC1 [MC30]
λmax [nm] (in MeOH): 385 (MeOH) nm

CC(=O)/C(C(=O)Nc1ccc(NC(=O)/C(C(C)=O)=C2/C=C(N3CCCC3)CC(C)(C)C2)cc1)=C1\C=C(N2CCCC2)CC(C)(C)C1 [MC31]
λmax [nm] (in MeOH): 394 (MeOH) nm

CCOC(=O)/C(=C1\C=C(NC(C)CC)CCC1)C(OC)(C(=O)OCC)/C(C(=O)OCC)=C1/C=C(NC(C)CC)CCC1 (centres unmarked) [MC33]
λmax [nm] (in MeOH): 375 (MeOH) nm

CC1(C)CC(NC2CCCCC2NC2=CC(=C(C#N)C#N)CC(C)(C)C2)=CC(=C(C#N)C#N)C1 (centres unmarked) [MC34]
λmax [nm] (in MeOH): 383 (MeOH) nm

COC(=O)C(C(=O)OC)=C1C=C(NC2CCCCC2NC2=CC(=C(C(=O)OC)C(=O)OC)CCC2)CCC1 (centres unmarked) [MC35]
λmax [nm] (in MeOH): 374 (MeOH) nm

CCCCCCN(C=CC=C(C(C)=O)S(=O)(=O)c1ccc(C)cc1)CC [MC36]
λmax [nm] (in MeOH): 385 (MeOH) nm

CCCCC(CC)COC(=O)C(C#N)=CC=CN(CC)CC (centres unmarked) [MC39]
λmax [nm] (in EtOH): 380 (EtOH) nm
E (1%, 1 cm): 2037
ε: 62400 L/mol/cm
λmax (solvent not given): 380

CCCCCCCCOC(=O)/C(=C\C=C\N(CC)CC)S(=O)(=O)c1ccccc1 [MC172]
E (1%, 1 cm): 1724
ε: 72700 L/mol/cm
λmax (solvent not given): 371

CCCCC(CC)COC(=O)/C(C#N)=C\C=C\N(CC)CCCN(/C=C/C=C(/C#N)C(=O)OCC(CC)CCCC)CC (centres unmarked) [MC173]
E (1%, 1 cm): 1545
ε: 92000 L/mol/cm
λmax (solvent not given): 390

CCCCC(CC)COC(=O)/C(C#N)=C/C=C/N1CCN(/C=C/C=C(\C#N)C(=O)OCC(CC)CCCC)CC1 (centres unmarked) [MC174]
E (1%, 1 cm): 2650
ε: 146 379
λmax (solvent not given): 398

CN(C)/C=C/C=C1C(=O)OC(C)(C)OC1=O [MC175]
E (1%, 1 cm): 3022
ε: 68000 L/mol/cm
λmax (solvent not given): 383

COC(=O)C(=C/C=C/N(C)C)C(=O)OC [MC177]
E (1%, 1 cm): 2488
ε: 53000 L/mol/cm
λmax (solvent not given): 373

COC(=O)C(=C/C=C/N1CCOCC1)C(=O)OC [MC178]
E (1%, 1 cm): 1476
ε: 37700 L/mol/cm
λmax (solvent not given): 373

COC(=O)C(=C/C=C/N1CCCCC1)C(=O)OC [MC179]
E (1%, 1 cm): 1953
ε: 49500 L/mol/cm
λmax (solvent not given): 377

COC(=O)C(=C/C=C/N(C(C)C)C(C)C)C(=O)OC [MC180]
E (1%, 1 cm): 2111
ε: 56800 L/mol/cm
λmax (solvent not given): 378

CCOC(=O)C(=C/C=C/N1CCOCC1)C(=O)OCC [MC181]
E (1%, 1 cm): 1684
ε: 47700 L/mol/cm
λmax (solvent not given): 371

CCCCN(/C=C/C=C(C(=O)OCC)C(=O)OCC)CCCC [MC182]
E (1%, 1 cm): 1423
ε: 60600 L/mol/cm
λmax (solvent not given): 377

CCCCC(CC)COC(=O)/C(C#N)=C\C=C\N(CC)CCCCN(/C=C/C=C(/C#N)C(=O)OCC(CC)CCCC)CC (centres unmarked) [MC183]
E (1%, 1 cm): 2570
ε: 111000 L/mol/cm
λmax (sh) (solvent not given): 370
λmax (solvent not given): 386

CCCCC(CC)COC(=O)/C(C#N)=C1\C=C(N2CCOCC2)CC(C)(C)C1 (centres unmarked) [MC184]
λmax (acetonitrile): 399

CCCCC(CC)COC(=O)/C(C#N)=C1\C=C(NC(C)CC)CC(C)(C)C1 (centres unmarked) [MC185]
λmax (acetonitrile): 388
λmax (sh) (acetonitrile): 368

CCOC(=O)C(C(=O)OCC)=C1C=C(N2CCOCC2)CC(C)(C)C1 [MC186]
λmax (acetonitrile): 376
